Calls of active or inactive are those of the source. The rule behind the calls is not given here.

Data set [1] has as its target T1, Acetylcholinesterase (Homo sapiens, UniProt P22303). The data set can be described thus: Inhibition of human recombinant AChE using acetylthiocholine iodide as substrate up to 50 uM preincubated with enzyme for 20 mins prior to substrate addition by Ellman's method. (In general: In Ellman's method for cholinesterases, released thiocholine reacts with DTNB.)
The test system of a further data set is SH-SY5Y. Put plainly: (§1) Neurotoxicity against human SH-SY5Y cells assessed as inhibition of cell viability after 24 hrs by MTT assay. The data set is classed as toxicity, cell-based. To be noted: sh-sy5y, 24 h. A general note: Formazan colour is commonly taken as a measure of viable cells.
A further data set has as its target Beta-secretase 1 (Homo sapiens, UniProt P56817). The data set can be described thus: Inhibition of human recombinant BACE1 using M-2420 as substrate preincubated with enzyme for 1 hr by FRET assay.
Data set [2] deals with T1, Acetylcholinesterase.
Description: Inhibition of human recombinant AChE using acetylthiocholine iodide as substrate preincubated with enzyme for 20 mins prior to substrate addition by Ellman's method
Data set [3] in a line: as §1. The data set is classed as toxicity, cell-based. The settings on record: SH-SY5Y cells.

Beta-secretase 1, sequence (P56817 whole entry): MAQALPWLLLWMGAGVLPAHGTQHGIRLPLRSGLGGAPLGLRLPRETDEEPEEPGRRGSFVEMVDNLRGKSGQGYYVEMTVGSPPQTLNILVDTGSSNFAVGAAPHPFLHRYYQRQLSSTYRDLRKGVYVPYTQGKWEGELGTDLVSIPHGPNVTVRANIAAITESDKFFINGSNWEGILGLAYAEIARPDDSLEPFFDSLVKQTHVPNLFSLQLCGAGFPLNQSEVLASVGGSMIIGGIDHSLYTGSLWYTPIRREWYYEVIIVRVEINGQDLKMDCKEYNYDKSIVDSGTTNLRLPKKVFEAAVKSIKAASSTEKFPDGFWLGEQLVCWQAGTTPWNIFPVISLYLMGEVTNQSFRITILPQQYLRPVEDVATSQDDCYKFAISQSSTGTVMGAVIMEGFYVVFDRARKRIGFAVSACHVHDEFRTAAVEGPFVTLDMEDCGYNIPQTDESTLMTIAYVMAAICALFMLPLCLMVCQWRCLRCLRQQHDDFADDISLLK
T1 sequence (P22303 whole entry): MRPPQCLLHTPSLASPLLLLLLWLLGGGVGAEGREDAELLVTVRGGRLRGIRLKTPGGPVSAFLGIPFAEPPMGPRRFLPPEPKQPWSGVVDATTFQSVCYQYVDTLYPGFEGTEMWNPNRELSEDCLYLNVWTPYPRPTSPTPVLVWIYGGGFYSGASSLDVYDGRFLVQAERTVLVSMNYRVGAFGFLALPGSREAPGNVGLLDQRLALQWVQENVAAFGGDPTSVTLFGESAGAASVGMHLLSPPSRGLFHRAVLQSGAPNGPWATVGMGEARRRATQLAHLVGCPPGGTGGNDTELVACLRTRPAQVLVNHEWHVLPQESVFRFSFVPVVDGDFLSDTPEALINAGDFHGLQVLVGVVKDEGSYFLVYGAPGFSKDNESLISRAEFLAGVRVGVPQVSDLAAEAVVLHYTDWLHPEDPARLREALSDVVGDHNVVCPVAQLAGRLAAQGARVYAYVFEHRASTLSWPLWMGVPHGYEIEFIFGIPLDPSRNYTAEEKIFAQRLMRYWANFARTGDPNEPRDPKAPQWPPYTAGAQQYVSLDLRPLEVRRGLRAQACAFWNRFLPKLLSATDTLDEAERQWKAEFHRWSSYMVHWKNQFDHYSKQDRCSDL

The term IC50 denotes the concentration that gives 50% inhibition. For `CN(Cc1ccccc1)Cc1ccc(/C=C2\Cc3ccc(OCCCCCN4CCN(C(c5ccc(F)cc5)c5ccc(F)cc5)CC4)cc3C2=O)cc1`, the inhibition result on Acetylcholinesterase [1] was “inactive”. Besides, the Activity entry with SH-SY5Y is given as “Non-toxic”. The IC50 at Beta-secretase 1 was 2.49 µM.
For the compound `CN(Cc1ccccc1)Cc1ccc(/C=C2\Cc3ccc(OCCCCCN4CCC(n5c(=O)[nH]c6ccccc65)CC4)cc3C2=O)cc1`, the inhibition entry at Acetylcholinesterase [1] is “inactive”.
As to `CN(Cc1ccccc1)Cc1ccc(/C=C2\Cc3ccc(OCCCCCN4CCC(=C(c5ccc(F)cc5)c5ccc(F)cc5)CC4)cc3C2=O)cc1`, the inhibition entry on Acetylcholinesterase [1] is “inactive”. Further, on Beta-secretase 1, the IC50 stood at 5.95 µM.
Take `CN(Cc1ccccc1)Cc1ccc(/C=C2\CCc3cc(OCCCCCN4CCN(C(c5ccc(F)cc5)c5ccc(F)cc5)CC4)ccc3C2=O)cc1`: the inhibition entry on Acetylcholinesterase [1] was “inactive”.
For the compound `CN(Cc1ccccc1)Cc1ccc(/C=C2\Cc3ccc(OCCCCCN4CCN(Cc5ccc(F)cc5)CC4)cc3C2=O)cc1`, on Acetylcholinesterase [1], the inhibition entry is “inactive”.
At Acetylcholinesterase [2], `CN(Cc1ccccc1)Cc1ccc(/C=C2\CCc3cc(OCCCCCN4CCN(Cc5ccc(F)cc5)CC4)ccc3C2=O)cc1` displayed an IC50 of 7.83 µM.
`CN(Cc1ccccc1)Cc1ccc(/C=C2\Cc3ccc(OCCCCCN4CCN(OC(=O)C(C)(C)C)CC4)cc3C2=O)cc1`: the inhibition result on Acetylcholinesterase [1] was “inactive”. Besides, the Activity result with SH-SY5Y is “Non-toxic”. On Beta-secretase 1, the IC50 worked out at 3.21 µM.
In the case of `CN(Cc1ccccc1)Cc1ccc(/C=C2\Cc3ccc(OCCCCCN4CCC(c5ccccc5)CC4)cc3C2=O)cc1`, the IC50 at Acetylcholinesterase [2] is 62 µM; at Beta-secretase 1, 13.4 µM.
Turning to `CN(Cc1ccccc1)Cc1ccc(/C=C2\Cc3ccc(OCCCCCN4CCN(c5ccccc5)CC4)cc3C2=O)cc1`, the inhibition entry on Acetylcholinesterase [1] is “inactive”. Besides, on Beta-secretase 1, the IC50 was 11.7 µM.
`CN(Cc1ccccc1)Cc1ccc(/C=C2\Cc3ccc(OCCCCCN4CCCCC4)cc3C2=O)cc1`: in data set [3], the IC50 at 24 h stood at 23.3 µM.
Consider `CCOC(=O)C1(c2ccccc2)CCN(CCCCCOc2ccc3c(c2)C(=O)/C(=C/c2ccc(CN(C)Cc4ccccc4)cc2)C3)CC1`, for which the inhibition entry at Acetylcholinesterase [1] is “inactive”. On Beta-secretase 1, the IC50 stood at 8.23 µM.

These data come from ChEMBL document CHEMBL3596160, “From AChE to BACE1 inhibitors: The role of the amine on the indanone scaffold” (Bioorg Med Chem Lett, 2015).
